Patent publication US10537552B2, “Substituted 5-hydroxyoxindoles and their use as analgesics and fever reducers” (CARAFE DRUG INNOVATION, LLC, priority 2015, dated 2020)

Assays:
[1] = test system: acetic acid-induced behavioral response; assay: abdominal constriction response test (acetic acid), Example 9; assay type: in vivo; settings: B6C3F1 mice, FIG. 1; for inhibition of acetic acid-induced behavioral response: p.o. 30 min before i.p. 0.9% acetic acid, DMSO/2% methylcellulose, acetaminophen 75 to 300 mg/kg
Description: The example was performed to compare the antinociception (animal equivalent of analgesia) produced by the oral administration of 5-hydroxyoxindole vs acetaminophen in a standard model in mice. Male B6C3F1 mice (Taconic), 8-10 weeks of age were utilized. The mice were received at the facility at least one week prior to testing and housed in standard polycarbonate cages with filter tops. The experiments were done in accordance with the guidelines of the National Institutes of Health (NIH) and with the guidelines of the Committee for Research and Ethical Issues of the IASP (International Association for the Study of Pain) and were approved by the Institutional Animal Care and Use Committee (IACUC) of Taconic Laboratories. Four or five animals were housed per cage and food and water were provided ad libitum. Prior to initiation of the study, the mice were examined to assure adequate health and suitability. They were maintained on a 12 h/12 h light/dark cycle and room temperature was maintained between 20 and 23° C. with a relative humidity maintained between 30 and 70%. All compounds were tested in naïve animals. All compounds were administered orally 10 mL/kg, with a 30 minute pretreatment time. Each compound was dissolved in DMSO as a stock solution and mixed with methylcellulose (2%) before testing. Each compound was initially tested in five mice at a dose of 300 mg/kg in the abdominal constriction response test (Collier, British Journal of Pharmacology and Chemotherapy 32(2): 295-310, 1968). Based upon the results of the initial test, the dose-response relationship for each active compound was determined by measuring the level of analgesia produced by at least 3 escalating doses of the test compound. […] Vehicle or test compound was administered p.o. (per os) 30 min prior to an intraperitoneal (i.p.) injection of 0.9% acetic acid (10 mL/kg) and the number of responses (stretching of the hind limbs accompanied by a contraction of the abdominal muscles) to the acetic acid injection were counted over the subsequent 30 min period. […]

[2] = test system: liver (acute liver toxicity); assay: liver histology (pathohistological examination); assay type: in vivo, C57BL/6 mice; settings: mouse, in vivo
Description: In all experiments, mice were fasted overnight and then allocated randomly to receive either acetaminophen or equimolar dose of 5-hydroxy-7-methyloxindole by the intragastric route. Food was returned 4 h after the treatment. The two experimental groups were:
(a) Lower-dose group: Mice were administered acetaminophen (300 mg/kg) or 5-hydroxy-7-methyloxindole (324 mg/kg). After 7 h, the mice were sacrificed and liver and blood samples were taken for the analysis.
Seven hours after receiving the second injection, mice were sacrificed and liver and blood samples were taken for analysis.
A portion of the liver lobes of each mouse was fixed in 4% buffered paraformaldehyde, dehydrated in increasing concentrations of ethanol, and embedded in paraffin. Then, sections of tissue were cut to […] thickness using a rotary microtome, stained with hematoxylin and eosin, and then analyzed under a microscope.

[3] = test system: acetic acid-induced writhing responses; assay: acetic acid writhing test (abdominal irritant test), Example 10; assay type: in vivo, C57/B16 mice; settings: C57/B16 mice
Description: This example compares the antinociception (animal equivalent of analgesia) produced by the oral administration of 5-hydroxy-7-methyloxindole vs. acetaminophen. Initial studies were performed using 10% DMSO/Cremophor™ as the vehicle. To enable a comparison with other datasets, 5-hydroxy-7-methyloxindole was subsequently tested using 6% Tween 20® reagent as the vehicle.
Male C57/B16 mice (Taconic), 8 weeks of age, were used in this study. The mice were received at Drexel University at least one week prior to testing and housed in standard polycarbonate cages with filter tops. Experiments were done in accordance with the guidelines of the National Institutes of Health and with the guidelines of the Committee for Research and Ethical Issues of IASP and were approved by the Animal Care and Use Committee of Drexel University College of Medicine. Four to five animals were housed per cage and food and water were provided ad libitum. Prior to initiation of the study, the animals were examined to assure adequate health and suitability. Mice were maintained on a 12/12 light/dark cycle and room temperature was maintained between 20 and 23° C. with a relative humidity maintained between 30% and 70%.
Compounds were administered orally 10 mL/kg, with a 30 minute pretreatment time. All compounds were tested in naïve animals. Each compound was dissolved in DMSO as a stock solution and mixed with Cremophor™ (1:1 v/v) before testing. The mixed solutions were diluted 1:4 with sterile water (the final concentration of DMSO/Cremophor™ reagent was 10%) immediately before administration to maximize the amount of compound in solution and improve the uniformity of any compound substance remaining in suspension. It is possible that some of the drug was in suspension at the time of administration. Each compound was initially tested in 5 mice at a dose of 300 mg/kg in the writhing test to assess their ability to alleviate abdominal pain. Based on the results of the initial test, the dose-response relationship for each active compound was determined by measuring the level of analgesia produced by at least 3 escalating doses of the test compound. The measurement of inhibition of writhing for acetaminophen and 5-hydroxy-7-methyloxindole were repeated using 6% Tween® 20 reagent as the vehicle. In this case, both compounds were clearly in suspension when administered to the animals.
A modified version of the standard abdominal irritant test was used to assess analgesia. Mice were habituated for 1 h in a transparent test box (5×5×10 inches) before any injections. Vehicle or test compound was administered p.o. (per os) 30 min prior to an intraperitoneal (i.p.) injection of 0.6% acetic acid (10 mL/kg) and the number of writhing responses (stretching of the hind limbs accompanied by a contraction of the abdominal muscles) to the acetic acid injection were counted over the subsequent 30 min period. The mice from each cage were randomly assigned to the dosing groups and the mice from each group were injected in a random order.
The one-way ANOVA was used to determine significant difference from the vehicle control treated animal. Dose response data for 5-hydroxy-7-methyloxindole was fit by non-linear regression analysis to a logit model to provide an estimate of ED50.

## O=C1Cc2cc(O)ccc2N1 [Example 5-HI, 5-hydroxyoxindole]
[1]
  inhibition of acetic acid-induced behavioral response: statistically significant, dose-related inhibition
[1]; p.o.
  dose needed for same analgesic efficacy as acetaminophen: higher doses of 5-HI were required

## CC(=O)Nc1ccc(O)cc1 [acetaminophen, N-(4-Hydroxyphenyl)acetamide, reference compound]
[1]
  inhibition of acetic acid-induced behavioral response: robust and dose-related inhibition
[2]
  liver injury on pathohistological examination: acute liver injury in all of the mice
[3]; p.o. 30 min before i.p. 0.6% acetic acid, 10% DMSO/Cremophor vehicle, 30 to 300 mg/kg, FIG. 2, 3
  inhibition of acetic acid-induced response (writhing): robust and dose-related inhibition
[3]; p.o., 6% Tween 20 vehicle (suspension), 100 and 300 mg/kg, FIG. 5, 6
  inhibition of acetic acid-induced response (writhing): Only a 300 mg/kg dose produced significant inhibition
